Measured values published in patent publication US6620593B1, “Method for safety evaluation of chemical compound using recombinant yeast expressing human cytochrome P450” (Sumitomo Chemical Company, Limited, priority 1993, dated 2003).
Like-named read-outs stand apart in the source and are kept apart here.

Experiments:
human P450 1A2 = molecular target: T1, human P450 1A2 (Homo sapiens, UniProt P05177); experiment: Metabolism (hydroxylation) of substrates using transformed yeast cells or their microsomal fractions expressing human P450 1A2 and yeast NADPH-P450 reductase
T1 sequence (P05177 1-516): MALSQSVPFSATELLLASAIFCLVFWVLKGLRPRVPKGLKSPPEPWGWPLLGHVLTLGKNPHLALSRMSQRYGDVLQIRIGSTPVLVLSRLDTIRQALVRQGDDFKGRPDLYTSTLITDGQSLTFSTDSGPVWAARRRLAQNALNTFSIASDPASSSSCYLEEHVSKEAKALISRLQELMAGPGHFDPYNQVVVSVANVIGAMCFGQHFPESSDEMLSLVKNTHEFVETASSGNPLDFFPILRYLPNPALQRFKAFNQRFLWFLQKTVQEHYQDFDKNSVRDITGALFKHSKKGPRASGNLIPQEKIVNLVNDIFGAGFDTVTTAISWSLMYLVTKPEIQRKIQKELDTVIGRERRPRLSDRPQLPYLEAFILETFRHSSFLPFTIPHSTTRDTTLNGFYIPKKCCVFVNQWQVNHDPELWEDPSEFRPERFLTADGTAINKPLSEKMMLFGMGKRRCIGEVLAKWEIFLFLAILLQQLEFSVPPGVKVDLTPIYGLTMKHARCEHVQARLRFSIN
Method: (§1) Then 2 ml of dichloromethane was added.

human P450 2C9 = human P450 2C9 (Homo sapiens, UniProt P11712); experiment: Metabolism (hydroxylation) of substrates using transformed yeast cells or microsomal fractions expressing human P450 2C9
Sequence of human P450 2C9 (P11712 whole entry): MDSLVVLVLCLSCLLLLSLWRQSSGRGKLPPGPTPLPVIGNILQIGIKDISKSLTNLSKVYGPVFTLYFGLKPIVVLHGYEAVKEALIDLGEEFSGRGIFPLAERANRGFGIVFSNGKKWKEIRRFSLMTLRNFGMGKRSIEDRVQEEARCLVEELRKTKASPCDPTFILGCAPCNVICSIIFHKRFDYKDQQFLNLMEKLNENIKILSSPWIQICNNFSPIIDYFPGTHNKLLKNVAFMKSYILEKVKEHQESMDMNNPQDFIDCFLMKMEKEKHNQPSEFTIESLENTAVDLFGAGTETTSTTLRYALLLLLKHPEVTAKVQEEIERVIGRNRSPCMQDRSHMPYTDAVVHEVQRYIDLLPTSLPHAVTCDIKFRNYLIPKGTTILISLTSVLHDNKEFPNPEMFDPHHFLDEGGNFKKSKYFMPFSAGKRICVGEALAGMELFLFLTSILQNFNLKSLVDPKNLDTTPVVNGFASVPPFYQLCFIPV
Method: as §1

human P450 2E1 = human P450 2E1 (Homo sapiens, UniProt P05181); experiment: Metabolism (hydroxylation) of substrates using transformed yeast cells or microsomal fractions expressing human P450 2E1
Sequence of human P450 2E1 (P05181 whole entry): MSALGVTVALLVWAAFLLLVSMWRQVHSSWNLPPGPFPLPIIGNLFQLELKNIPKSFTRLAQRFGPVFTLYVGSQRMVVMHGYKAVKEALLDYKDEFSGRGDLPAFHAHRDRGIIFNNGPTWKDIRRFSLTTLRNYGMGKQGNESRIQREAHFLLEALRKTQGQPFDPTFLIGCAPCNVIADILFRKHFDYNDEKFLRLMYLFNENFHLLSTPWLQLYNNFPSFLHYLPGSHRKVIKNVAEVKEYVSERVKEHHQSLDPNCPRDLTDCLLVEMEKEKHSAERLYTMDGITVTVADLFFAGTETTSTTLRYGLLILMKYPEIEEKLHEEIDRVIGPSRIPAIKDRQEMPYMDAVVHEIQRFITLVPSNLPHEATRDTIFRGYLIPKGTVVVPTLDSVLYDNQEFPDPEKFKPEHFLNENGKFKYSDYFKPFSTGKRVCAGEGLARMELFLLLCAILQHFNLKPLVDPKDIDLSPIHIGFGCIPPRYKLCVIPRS
Method: as §1

human P450 3A4 = experiment: Metabolism (hydroxylation) of substrates using transformed yeast cells or microsomal fractions expressing human P450 3A4
Method: as §1

human P450 2A6 = experiment: Metabolism (hydroxylation) of substrates using transformed yeast cells or microsomal fractions expressing human P450 2A6
Method: as §1

human P450 2B6 = molecular target: T2, human P450 2B6 (Homo sapiens, UniProt P20813); experiment: Metabolism (hydroxylation) of substrates using transformed yeast cells or microsomal fractions expressing human P450 2B6
T2 sequence (P20813 1-491): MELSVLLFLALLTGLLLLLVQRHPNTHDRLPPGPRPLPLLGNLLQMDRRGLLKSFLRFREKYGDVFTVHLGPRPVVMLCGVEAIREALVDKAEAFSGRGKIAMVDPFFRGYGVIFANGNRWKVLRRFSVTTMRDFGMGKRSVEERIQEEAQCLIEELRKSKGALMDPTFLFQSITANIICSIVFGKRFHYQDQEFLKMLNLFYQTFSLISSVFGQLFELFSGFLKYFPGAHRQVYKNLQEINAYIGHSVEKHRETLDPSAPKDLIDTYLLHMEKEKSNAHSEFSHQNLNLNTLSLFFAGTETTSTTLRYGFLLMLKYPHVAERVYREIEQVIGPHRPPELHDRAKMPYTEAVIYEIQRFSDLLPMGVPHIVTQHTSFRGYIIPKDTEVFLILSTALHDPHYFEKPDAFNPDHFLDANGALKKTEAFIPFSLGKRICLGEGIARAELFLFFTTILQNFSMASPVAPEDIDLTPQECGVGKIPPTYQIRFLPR
Method: as §1

human P450 2C8 = experiment: Metabolism (hydroxylation) of substrates using transformed yeast cells or microsomal fractions expressing human P450 2C8
Method: as §1

human P450 2C18 = molecular target: T3, human P450 2C18 (Homo sapiens, UniProt P33260); experiment: Metabolism (hydroxylation) of substrates using transformed yeast cells or microsomal fractions expressing human P450 2C18
T3 sequence (P33260 26-490): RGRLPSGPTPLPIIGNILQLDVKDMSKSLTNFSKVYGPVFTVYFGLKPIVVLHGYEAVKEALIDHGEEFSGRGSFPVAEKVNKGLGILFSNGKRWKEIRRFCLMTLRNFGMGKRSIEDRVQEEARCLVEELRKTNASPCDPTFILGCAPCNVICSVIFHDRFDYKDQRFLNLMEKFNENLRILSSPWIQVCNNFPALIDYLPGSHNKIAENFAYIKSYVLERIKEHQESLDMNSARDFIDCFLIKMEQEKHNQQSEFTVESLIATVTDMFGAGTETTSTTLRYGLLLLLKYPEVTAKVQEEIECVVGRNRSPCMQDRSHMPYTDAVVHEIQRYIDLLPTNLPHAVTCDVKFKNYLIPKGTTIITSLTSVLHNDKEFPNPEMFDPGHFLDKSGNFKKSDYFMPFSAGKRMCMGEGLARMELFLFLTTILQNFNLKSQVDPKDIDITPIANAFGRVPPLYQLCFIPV
Method: as §1

human P450 2D6 = experiment: Metabolism (hydroxylation) of substrates using transformed yeast cells or microsomal fractions expressing human P450 2D6
Method: as §1

[1] = system: mixed system B (eleven human P450 molecular species); experiment: Metabolism of S-mephenytoin using mixture of microsomal fractions of transformed yeast cells (mixing system B); format: in vitro ADME; conditions: 37° C., 30 min; HPLC
Method: The mixing ratio of the human cytochrome P450 molecular species was the same as that of the mixing system B as described above. […] After the mixture was incubated at 37° C. for 30 min, 250 μl of methanol was added to the solution to stop the reaction.

[2] = system: other human P450 molecular species
human P450 1A1 [3] = molecular target: T4, human P450 1A1 (Homo sapiens, UniProt P04798); experiment: Metabolism (hydroxylation) of substrates using transformed yeast cells or microsomal fractions expressing human P450 1A1; conditions: Table 1; recombinant yeast cells or microsomal fractions; conditions per substrate
T4 sequence (P04798 1-512): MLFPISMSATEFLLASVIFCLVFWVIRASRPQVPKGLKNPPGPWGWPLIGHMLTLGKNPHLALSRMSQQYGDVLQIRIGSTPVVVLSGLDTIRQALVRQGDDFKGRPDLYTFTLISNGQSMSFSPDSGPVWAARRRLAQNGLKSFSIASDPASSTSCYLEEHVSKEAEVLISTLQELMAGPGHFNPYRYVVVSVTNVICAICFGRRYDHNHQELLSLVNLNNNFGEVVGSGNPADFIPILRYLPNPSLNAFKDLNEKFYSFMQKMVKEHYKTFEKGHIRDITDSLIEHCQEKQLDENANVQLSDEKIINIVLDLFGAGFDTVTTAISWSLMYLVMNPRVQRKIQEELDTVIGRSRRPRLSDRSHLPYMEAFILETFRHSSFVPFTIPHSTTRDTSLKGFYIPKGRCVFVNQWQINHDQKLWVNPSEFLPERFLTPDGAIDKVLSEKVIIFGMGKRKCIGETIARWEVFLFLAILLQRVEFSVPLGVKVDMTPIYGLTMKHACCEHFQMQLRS

human P450 2C19 = human P450 2C19 (Homo sapiens, UniProt P33261); experiment: Metabolism (hydroxylation) of substrates using transformed yeast cells or microsomal fractions expressing human P450 2C19
Sequence of human P450 2C19 (P33261 whole entry): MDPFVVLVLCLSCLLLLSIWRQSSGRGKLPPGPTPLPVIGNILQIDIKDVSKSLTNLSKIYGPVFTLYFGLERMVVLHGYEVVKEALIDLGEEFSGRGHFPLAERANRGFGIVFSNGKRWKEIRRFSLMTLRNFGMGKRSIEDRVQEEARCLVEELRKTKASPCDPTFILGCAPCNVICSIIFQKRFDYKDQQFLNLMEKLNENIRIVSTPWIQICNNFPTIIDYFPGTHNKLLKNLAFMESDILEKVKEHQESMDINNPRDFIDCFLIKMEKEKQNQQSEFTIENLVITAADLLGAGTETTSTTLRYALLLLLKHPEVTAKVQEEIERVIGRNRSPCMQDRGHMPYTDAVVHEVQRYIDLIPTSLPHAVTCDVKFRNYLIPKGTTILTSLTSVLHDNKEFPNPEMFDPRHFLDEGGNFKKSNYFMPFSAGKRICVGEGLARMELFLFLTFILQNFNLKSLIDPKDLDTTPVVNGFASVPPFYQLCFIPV
Method: as §1

[4] = system: other human P450 molecular species; experiment: Metabolism of substrates using yeast cells or microsomal fractions expressing the other human P450 molecular species (those not given); conditions: the remaining of the eleven human P450 species
[5] = system: mixed microsomal fractions of yeasts expressing human cytochrome P450 (3A4, 2C9, 2C8, 2C18, 2C19, 1A2, 2E1, 1A1, 2B6, 2D6); experiment: Metabolism of debrisoquine using mixture of microsomal fractions of transformed yeast cells; format: in vitro ADME; conditions: 37° C., 30 min; HPLC
Method: The mixing molar ratio of the human cytochrome P450 molecular species were as follows: [table] […] After the mixture was incubated at 37° C. for 30 min, 50 μl of 60% perchlorate was added to the solution to stop the reaction.

human P450 1A1 [6] = molecular target: T4, human P450 1A1; conditions: microsomes
[7] = Table 1, recombinant yeast cells or microsomal fractions, conditions per substrate

| Compound | Hydroxylation activity, human P450 1A2 (human P450 1A2; [7]) | Hydroxylation activity, human P450 2E1 (human P450 2E1; [7]) | Hydroxylation activity, human P450 3A4 (human P450 3A4; microsomes) | Hydroxylation activity, human P450 2A6 (human P450 2A6; microsomes) | Hydroxylation activity, human P450 2B6 (human P450 2B6; [7]) | Hydroxylation activity, human P450 2C8 (human P450 2C8; microsomes) | Hydroxylation activity, human P450 2C18 (human P450 2C18; [7]) | Hydroxylation activity, human P450 2D6 (human P450 2D6; microsomes) | Hydroxylated metabolite / hydroxylation activity with yeast expressing other human P450 than those named [2] | Hydroxylation activity, human P450 1A1 (human P450 1A1 [3]) | further results |
| --- | --- | --- | --- | --- | --- | --- | --- | --- | --- | --- | --- |
| CC[C@@]1(c2ccccc2)NC(=O)N(C)C1=O [S-Mephenytoin] | − | − | − | − | − | − | − | − | no activity | − | Hydroxylation activity, human P450 2C9 (human P450 2C9; [7]): −; Metabolites compared with those reported for human liver microsome (Goldstein) [1]: well coincided |
| C[C@]12CC[C@H]3[C@@H](CCC4=CC(=O)CC[C@@]43C)[C@@H]1CC[C@@H]2O [Testosterone] | − | − |  |  | − |  | − |  |  | + | Metabolising (hydroxylation / O-deethylation) activity in words, P450 3A4 (human P450 3A4; 7-ethoxycoumarin 0.5 mM, testosterone 0.05 mM, chlorzoxazone 0.5 mM or 250 μM, acetanilide 5 mM): detected; Hydroxylation activity, human P450 3A4 (human P450 3A4; [7]): + + +; Hydroxylation activity, human P450 2A6 (human P450 2A6; [7]): −; Metabolising (hydroxylation / O-deethylation) activity in words, P450 2C8 (human P450 2C8; 7-ethoxycoumarin 0.5 mM, tolbutamide 1.0 mM, testosterone 0.05 mM, chlorzoxazone, acetanilide 5 mM): detected; Hydroxylation activity, human P450 2C8 (human P450 2C8; [7]): +; Hydroxylation activity, human P450 2C19 (human P450 2C19; [7]): −; Hydroxylation activity, human P450 2D6 (human P450 2D6; [7]): −; Hydroxylated metabolite / hydroxylation activity with yeast expressing other human P450 than those named [4]: not detected |
| N=C(N)N1CCc2ccccc2C1 [Debrisoquine] |  |  | − | − |  | − |  | + + + | no activity |  | Hydroxylation activity, human P450 1A2 (human P450 1A2; microsomes): −; Hydroxylation activity, human P450 2C9 (human P450 2C9; microsomes): −; Hydroxylation activity, human P450 2E1 (human P450 2E1; microsomes): −; Hydroxylation activity, human P450 2B6 (human P450 2B6; microsomes): −; Hydroxylation activity, human P450 2C18 (human P450 2C18; microsomes): −; Hydroxylation activity, human P450 2C19 (human P450 2C19; microsomes): −; Metabolites compared with those reported for human liver microsome (Kronbach) [5]: well coincided; Hydroxylation activity, human P450 1A1 (human P450 1A1 [6]): + + |
